Drawing on patent US7807686B2, “2-(4-oxo-4H-quinazolin-3-yl)acetamides and their use as vasopressin V3 antagonists” (N.V. Organon, priority 2005, dated 2010), this text covers Ki for 24 molecules.

The structures appear in SMILES notation. Counter-ions that a name gives are not always drawn.

This assay deals with T1, human V3 receptor (Homo sapiens, UniProt P47901).
T1 construct: expressed in transfected cells
T1 sequence (P47901 1-424): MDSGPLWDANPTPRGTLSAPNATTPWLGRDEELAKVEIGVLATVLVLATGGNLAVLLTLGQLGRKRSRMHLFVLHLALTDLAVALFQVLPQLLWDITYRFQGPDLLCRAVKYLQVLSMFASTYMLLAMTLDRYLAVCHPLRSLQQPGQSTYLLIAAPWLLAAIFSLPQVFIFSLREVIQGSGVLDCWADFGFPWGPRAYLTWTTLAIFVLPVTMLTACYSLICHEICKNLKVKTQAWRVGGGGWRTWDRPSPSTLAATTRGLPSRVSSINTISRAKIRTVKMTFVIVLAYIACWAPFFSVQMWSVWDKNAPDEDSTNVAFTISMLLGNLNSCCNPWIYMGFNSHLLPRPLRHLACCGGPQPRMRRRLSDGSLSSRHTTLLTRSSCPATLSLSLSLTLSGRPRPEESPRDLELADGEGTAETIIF
Nature of the assay: [3H]AVP binding to CHO cells stably expressing the human V3 receptor. The settings on record: Ki from displacement of [3H]AVP (2.5×10^-9 mol.L^-1). The method, then:
Chinese Hamster Ovary (CHO) cells stably expressing the human V3 receptor were incubated to equilibrium with the test compound (at a final assay concentration of 10^−11 mol.L^−1 to 10^−5 mol.L^−1) and [^3H]AVP (at a final assay concentration of 2.5×10^−9 mol.L^−1). […] After washing with ice-cold phosphate buffered saline (PBS), scintillation fluid was added and the plates counted on a Topcount NXT apparatus.
A sigmoidal dose response curve (non-linear regression, variable slope) was plotted as concentration of test compound (mol.L^−1) against percentage specific binding of [^3H]AVP and a Ki value was calculated. Each determination was carried out in triplicate and repeated on at least 3 separate occasions
On the technique in general: In a radioligand displacement assay an active substance lowers the binding of a labelled ligand.

In turn, `CC(C)(C)NC(=O)Cn1c(-c2cccc(Cl)c2)nc2ccc(OCCCN3CCCCC3)cc2c1=O` [EXAMPLE 2f, N-tert-Butyl-2-[2-(3-chlorophenyl)-4-oxo-6-(3-piperidin-1-ylpropoxy)-4H-quinazolin-3-yl]acetamide] displayed a Ki of under 10 nM.
In the case of `COc1cccc(-c2nc3ccc(-c4ccc(CN5CCC5)o4)cc3c(=O)n2CC(=O)NC(C)C)c1` [EXAMPLE 9a, 2-[6-(5-Azetidin-1-ylmethylfuran-2-yl)-2-(3-methoxyphenyl)-4-oxo-4H-quinazolin-3-yl]-N-isopropylacetamide], the Ki lay in the range of 10 to 100 nM.
In turn, `COc1cc(-c2nc3ccc(OCCCN4CCC(O)CC4)cc3c(=O)n2CC(=O)NC(C)C)ccc1F` [EXAMPLE 2p, 2-{2-(4-Fluoro-3-methoxyphenyl)-6-[3-(4-hydroxypiperidin-1-yl)propoxy]-4-oxo-4H-quinazolin-3-yl}-N-isopropylacetamide] came in with a Ki of under 10 nM.
Molecule `C=CCNC(=O)Cn1c(-c2ccccc2)nc2ccc(-c3cccc(CN4CCCCC4)c3)cc2c1=O` [EXAMPLE 7x, N-Allyl-2-[4-oxo-2-phenyl-6-(3-piperidin-1-ylmethylphenyl)-4H-quinazolin-3-yl]acetamide] had a Ki of 100 to 1000 nM.
Regarding `COc1cccc(-c2nc3ccc(CCCCN4CCCC4)cc3c(=O)n2CC(=O)NC(C)C)c1` [EXAMPLE 11b, N-Isopropyl-2-[2-(3-methoxyphenyl)-4-oxo-6-(4-pyrrolidin-1-ylbutyl)-4H-quinazolin-3-yl]acetamide], the Ki was in the range of 10 to 100 nM.
Molecule `COc1cc(OC)cc(-c2nc3ccc(OCCCN4CCOCC4)cc3c(=O)n2CC(=O)NCC2CC2)c1` [EXAMPLE 3k, N-Cyclopropylmethyl-2-[2-(3,5-dimethoxyphenyl)-6-(3-morpholin-4-ylpropoxy)-4-oxo-4H-quinazolin-3-yl]acetamide] returned a Ki of under 10 nM.
The result for `CC(C)NC(=O)Cn1c(-c2cccc(F)c2)nc2ccc(OC[C@@H](C)CN3CCOCC3)cc2c1=O` [EXAMPLE 4g, (S)-(+)-2-[2-(3-Fluorophenyl)-6-(2-methyl-3-morpholin-4-ylpropoxy)-4-oxo-4H-quinazolin-3-yl]-N-isopropylacetamide] reads under 10 nM; that for `COc1cccc(-c2nc3ccc(OC[C@@H](C)CN4CCC4)cc3c(=O)n2CC(=O)NC(C)C)c1` [EXAMPLE 4i, (S)-(+)-2-[6-(3-Azetidin-1-yl-2-methylpropoxy)-2-(3-methoxyphenyl)-4-oxo-4H-quinazolin-3-yl]-N-isopropylacetamide], 10 to 100 nM; that for `COc1cccc(-c2nc3ccc(OCC4CCCN(C)C4)cc3c(=O)n2CC(=O)NC(C)C)c1` (stereo not drawn) [EXAMPLE 14a, N-Isopropyl-2-[2-(3-methoxyphenyl)-6-(1-methylpiperidin-3-ylmethoxy)-4-oxo-4H-quinazolin-3-yl]acetamide], 100 to 1000 nM.
Next, `COc1cccc(-c2nc3ccc(SCCCN4CCCCC4)cc3c(=O)n2CC(=O)NC(C)C)c1` [EXAMPLE 3t, N-Isopropyl-2-[2-(3-methoxyphenyl)-4-oxo-6-(3-piperidin-1-ylpropylsulfanyl)-4H-quinazolin-3-yl]acetamide]: 10 to 100 nM; `COc1cccc(-c2nc3ccc(-c4cccc(CN5CCOCC5)c4)cc3c(=O)n2CC(=O)NC(C)C)c1` [EXAMPLE 7u, N-Isopropyl-2-[2-(3-methoxyphenyl)-6-(3-morpholin-4-ylmethylphenyl)-4-oxo-4H-quinazolin-3-yl]acetamide]: under 10 nM; `COc1cccc(-c2nc3ccc(NCCCN4CCCCC4)cc3c(=O)n2CC(=O)NC(C)C)c1` [EXAMPLE 13a, N-Isopropyl-2-[2-(3-methoxyphenyl)-4-oxo-6-(3-piperidin-1-ylpropylamino)-4H-quinazolin-3-yl]acetamide]: 100 to 1000 nM.
For the molecule `COc1cccc(-c2nc3ccc(-c4cccc(CN(C)CC(C)C)c4)cc3c(=O)n2CC(=O)NC(C)C)c1` [EXAMPLE 7p, 2-[6-{3-[(Isobutylmethylamino)methyl]phenyl}-2-(3-methoxyphenyl)-4-oxo-4H-quinazolin-3-yl]-N-isopropylacetamide], the Ki fell in the range of 10 to 100 nM.
In the case of `COc1cccc(-c2nc3ccc(-c4cc(CN(C)C)ccc4F)cc3c(=O)n2CC(=O)NC(C)C)c1` [EXAMPLE 6a, 2-[6-(5-Dimethylaminomethyl-2-fluorophenyl)-2-(3-methoxyphenyl)-4-oxo-4H-quinazolin-3-yl]-N-isopropylacetamide], the inhibitory constant (Ki) is under 10 nM.
Molecule `COc1cccc(-c2nc3ccc(OCCC4CCCCN4C)cc3c(=O)n2CC(=O)NC(C)C)c1` (stereo not drawn) [EXAMPLE 12a, N-Isopropyl-2-[2-(3-methoxyphenyl)-6-[2-(1-methylpiperidin-2-yl)ethoxy]-4-oxo-4H-quinazolin-3-yl]acetamide] registered an inhibition constant Ki of 100 to 1000 nM.
In turn, `COc1cccc(-c2nc3ccc(OCCCN4CCCCC4)cc3c(=O)n2CC(=O)NC(C)C)n1` [EXAMPLE 1h, N-Isopropyl-2-[2-(6-methoxypyridin-2-yl)-4-oxo-6-(3-piperidin-1-ylpropoxy)-4H-quinazolin-3-yl]acetamide] had an inhibitory constant (Ki) of under 10 nM.
`CCCNC(=O)Cn1c(-c2cccc(OC)c2)nc2ccc(OC[C@@H](C)CN3CCCCC3)cc2c1=O` [EXAMPLE 4n, (S)-(+)-2-[2-(3-Methoxyphenyl)-6-(2-methyl-3-piperidin-1-ylpropoxy)-4-oxo-4H-quinazolin-3-yl]-N-propylacetamide] returned an inhibition constant (Ki) of under 10 nM.
`COc1cccc(-c2nc3ccc(-c4cccc(CN(C)C)n4)cc3c(=O)n2CC(=O)NC(C)C)c1` [EXAMPLE 6b, 2-[6-(6-Dimethylaminomethylpyridin-2-yl)-2-(3-methoxyphenyl)-4-oxo-4H-quinazolin-3-yl]-N-isopropylacetamide] showed a Ki of 10 to 100 nM.
`CC(C)NC(=O)Cn1c(-c2cccc(Cl)c2)nc2ccc(OCCCN3CCCCC3)cc2c1=O` [EXAMPLE 3a, 2-[2-(3-Chlorophenyl)-4-oxo-6-(3-piperidin-1-ylpropoxy)-4H-quinazolin-3-yl]-N-isopropylacetamide hydrochloride] had an inhibitory constant (Ki) of under 10 nM.
Regarding `COc1cccc(-c2nc3ccc(/C=C/CCN4CCOCC4)cc3c(=O)n2CC(=O)NC(C)C)c1` [EXAMPLE 10b, N-Isopropyl-2-[2-(3-methoxyphenyl)-6-(4-morpholin-4-ylbut-1-enyl)-4-oxo-4H-quinazolin-3-yl]acetamide], the Ki lay within 10 to 100 nM.
On to `O=C(Cn1c(-c2ccccc2)nc2ccc(OCCCN3CCCCCC3)cc2c1=O)NCC1CC1` [EXAMPLE 4q, 2-[6-(3-Azepan-1-ylpropoxy)-4-oxo-2-phenyl-4H-quinazolin-3-yl]-N-cyclopropylmethylacetamide], for which the inhibition constant Ki is 100 to 1000 nM.
In turn, `CC(C)NC(=O)Cn1c(-c2cc(F)c(F)c(F)c2)nc2ccc(OCCCN3CCCCC3)cc2c1=O` [EXAMPLE 1f, N-Isopropyl-2-[4-oxo-6-(3-piperidin-1-ylpropoxy)-2-(3,4,5-trifluorophenyl)-4H-quinazolin-3-yl]acetamide] had an inhibition constant Ki of 10 to 100 nM.
On to `COc1cccc(-c2nc3cc(C)c(OCCCN4CCCCC4)cc3c(=O)n2CC(=O)NC(C)C)c1` [EXAMPLE 2w, N-Isopropyl-2-[2-(3-methoxyphenyl)-7-methyl-4-oxo-6-(3-piperidin-1-ylpropoxy)-4H-quinazolin-3-yl]acetamide], for which the Ki is under 10 nM.
`COc1ccc(CN(CCCN2CCCCC2)c2ccc3nc(-c4cccc(OC)c4)n(CC(=O)NC(C)C)c(=O)c3c2)cc1` [EXAMPLE 3r, N-Isopropyl-2-[6-[(4-methoxybenzyl)-(3-piperidin-1-ylpropyl)amino]-2-(3-methoxyphenyl)-4-oxo-4H-quinazolin-3-yl]acetamide]: the inhibition constant (Ki) fell in the range of 10 to 100 nM.

One may read the Ki as a measure of affinity in units of concentration, obtained from inhibition or displacement. Low values mean higher affinity, high ones lower affinity.
